Experiments:
BSP promoter = assay: BSP promoter-driven luciferase reporter activity in transfected cells; assay type: cell-based, human; settings: mineralization conditions versus T media, 2186 base pair construct
Protocol: Cells ([…]) were exposed to a BSP promoter-luciferase vector (2.5 ug) with liposome mediated transfection for 4-6 hours, then allowed to grow approximately 2 days at which time cell lysates were obtained and assayed for relative luciferase activity (RLU). All values were standardized with cotransfection of CMV-betagalactosidase reporter plasmid (0.5 ug).

[1] = Body weight of experimental animals in the PC-3 tumor study; assay type: in vivo, athymic nude (nu/nu) mice; settings: nude mice bearing PC3 tumors; intratumoral Ad-BSP-TK; GCV 40 mg/kg i.p.
Excerpt: FIG. 10 represents an in vivo experiment performed with 16 animals. Briefly, congenitally athymic nude (nu/nu) mice (Harlan Co., Houston, Tex.) 5 to 6 weeks of age, were inoculated s.c. with 2 million PC3 prostate cancer cells. When the tumor became palpable (4-5 mm in diameter), approximately 10 days after cell injection, the animals were randomly assigned to four experimental groups: group: 1, control group with no treatment; 2, intratumoral PBS on days 10, 17, 24 and 30; 3, Ad-BSP-TK only; and 4, Ad-BSP-TK plus GCV given on days 10-40. For Ad-BSP-TK injections, a microliter syringe fitted with a 28 gauge needle was used to deliver 75 μl of Ad-BSP-TK (1×10^9 plaque-forming units). The Ad-BSP-TK was injected intratumorally along both the long and short axes of the tumor; one injection parallel to the long axis, and one perpendicular to the axis. The needle point was then rotated within the tumor to maximize the area of Ad delivery. Tumor volume was calculated by the following formula: volume (a rotational ellipsoid)-M1xM2^2×0.5236 (M1, long axis; M2, short axis; Ko. S-C., Gotoh, A., Thalmann, G. N., Zhou, H. E., Johnston, D. A, Zhang, W. W., Kao, C., and Chung, L. W. K. Molecular therapy with recombinant p53 adenovirus in an androgen independent, metastatic human prostate cancer model. Hum. Gene Ther., 7:1683-1691, 1996). […]

**Q.** Which “BSP promoter expression as RLU” value (BSP promoter; C4-2B4) does the source give for `O=C1O[C@H]([C@@H](O)CO)C(O)=C1O` [L-ascorbic acid] here?
**A.** Its value is “hightened response”.

**Q.** What about the “BSP promoter expression as RLU” value (BSP promoter; Du-145) of the same compound?
**A.** Its value is “hightened response”.

**Q.** And the “BSP promoter expression as RLU” value (BSP promoter; PC-3)?
**A.** Its value is “hightened response”.

**Q.** Which “effect on body weight” value [1] does the source give for `Nc1nc(O)c2ncn(COC(CO)CO)c2n1` [GCV, Gancyclovir] here?
**A.** The value was “did not adversely affect the body weight”.

Reference: US20020025307A1, “Bone sialoprotein based toxic gene therapy for the treatment of calcified tumors and tissues” (priority 1998, published 2002)
